According to article PMC4280898, “Diazido Mixed-Amine Platinum(IV) Anticancer Complexes Activatable by Visible-Light Form Novel DNA Adducts” (Chemistry (Weinheim an Der Bergstrasse, Germany), 2013):
Where “and” joins values, the source holds several entries; their conditions need not be identical. Identical values can stand only once.

Key:
calf thymus DNA = test: Binding to calf thymus DNA (differential pulse polarography); conditions: in the dark; ri=0.05, 10 mM NaClO4, 310 K
Description: Binding to calf thymus DNA: Samples of double-helical calf thymus DNA (32 μg mL^−1) were treated with the Pt complexes at the ri=0.05 (ri is defined as the molar ratio of free platinum complex to nucleotide phosphates at the onset of incubation with DNA) in NaClO4 (10 mM) and incubated at 310 K in the dark for complexes 5 or 6 (Figure 7 C and D). For complexes 1 or 2, samples were irradiated continuously with 420 nm light for 30 min and then further incubated in the dark for up to 24 h so that the activated forms of the complexes could bind DNA (Figure 7 A and B). The amount of Pt bound to DNA increased with time for all four complexes. […]
the UKS method with the unrestricted PBE1PBE functional was employed. […] Thirty-two singlet and eight triplet excited states with the corresponding oscillator strengths were determined with a Time-dependent Density Functional Theory (TDDFT)[15] calculation. […]
assayed by differential pulse polarography for free, unbound platinum.[16] The amount of platinum bound to DNA was calculated by subtracting the amount of free (unbound) platinum from the total amount of platinum present in the reaction. […]
This fragment contained T7 RNA polymerase promoter (in the upper strand close to its 3'-end). […] The fragments produced in RNA synthesis on the template modified by the platinum complexes were analysed by a 6% polyacrylamide/8M urea sequencing gel. […]

pUC19 plasmid DNA = test: Unwinding of negatively supercoiled DNA, native agarose gel; format: biochemical; conditions: in the dark
Description: Unwinding of negatively supercoiled DNA: The unwinding induced in negatively supercoiled pUC19 plasmid DNA by treatment with photoactivated 1 or 2 or with 5 or 6 in the dark was measured. The degree of supercoiling was monitored using electrophoresis in native agarose gels[25] (Figure 12). The DNA unwinding angles for 1, 2, 5, and 6 were 22(±3)°, 20(±3)°, 19(±5)° and 23(±2)°, respectively.
Figure 12 Unwinding of negatively supercoiled […] plasmid DNA by: A) 1, and B) 2 under irradiation conditions (420 nm light); or C) 5, and D) 6 in the dark. The top bands in each panel correspond to the form of nicked plasmid and the bottom bands to the closed, negatively supercoiled plasmid. A) Lane 1: control, non-modified DNA; lane 2: irradiated control DNA; […]: DNA modified by photoactivated 1 at rb=0.016, 0.024, 0.032, 0.041 and 0.049, respectively. B) Lanes 1 and 10: control, non-modified DNA; lane 2: irradiated control DNA; lanes 3–9: DNA modified by photoactivated 2 at rb=0.008, 0.011, 0.020, 0.026, 0.035, 0.042 and 0.050, respectively. C) Lanes 1 and 12: control, non-modified DNA; lanes 2–11: DNA modified by 5 in the dark at rb=0.018, 0.027, 0.036, 0.045, 0.054, 0.063, 0.072, 0.081, 0.090 and 0.1, respectively. […]

Compound	Pt bound after 24 h (calf thymus DNA)	Unwinding angle (pUC19 plasmid DNA)
C[NH2+][Pt@SP3-2]([Cl])([Cl])[n+]1ccccc1 [Complex 5, trans-[PtCl2(MA)(Py)]]	80(±5) % and 80±5%	19(±5) ° and 19±5 °
C[NH2+][Pt@SP3-2]([Cl])([Cl])[n+]1ccsc1 [Complex 6, trans-[PtCl2(MA)(Tz)]]	63(±5) % and 63±5%	23(±2) ° and 23±2 °
